#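 Compound exposure: 48 hours, 5 concentrations, 96-well plates. At the GI50, growth is halved. TGI: concentration producing complete growth inhibition.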
# Columns and labels:
# Assay in all cases: inhibition of tumour cell growth, NCI panel, 48 h
# 786-0 renal = tested on: 786-0 renal
# A498 renal = tested on: A498 renal
# A549 NSCLC = tested on: A549 NSCLC
# ACHN renal = tested on: ACHN renal
# CAKI-1 renal = tested on: CAKI-1 renal
# CCRF-CEM leukemia = tested on: CCRF-CEM leukemia
# DU-145 prostate = tested on: DU-145 prostate
# EKVX NSCLC = tested on: EKVX NSCLC
# HCC-2998 colon = tested on: HCC-2998 colon
# HCT-116 colon = tested on: HCT-116 colon
# HCT-15 colon = tested on: HCT-15 colon
# HL-60(TB) leukemia = tested on: HL-60(TB) leukemia
# HOP-62 NSCLC = tested on: HOP-62 NSCLC
# HOP-92 NSCLC = tested on: HOP-92 NSCLC
# HS 578T breast = tested on: HS 578T breast
# HT29 colon = tested on: HT29 colon
# IGROV1 ovarian = tested on: IGROV1 ovarian
# K-562 leukemia = tested on: K-562 leukemia
# KM12 colon = tested on: KM12 colon
# LOX IMVI melanoma = tested on: LOX IMVI melanoma
# M14 melanoma = tested on: M14 melanoma
# MALME-3M melanoma = tested on: MALME-3M melanoma
# MCF7 breast = tested on: MCF7 breast
# MDA-MB-231 breast = tested on: MDA-MB-231 breast
# MDA-MB-435 = tested on: MDA-MB-435
# MOLT-4 leukemia = tested on: MOLT-4 leukemia
# NCI-H23 lung = tested on: NCI-H23 lung
# NCI-H460 lung = tested on: NCI-H460 lung
# NCI-H522 lung = tested on: NCI-H522 lung
# NCI/ADR-RES ovarian = tested on: NCI/ADR-RES ovarian
# OVCAR-3 ovarian = tested on: OVCAR-3 ovarian
# OVCAR-4 ovarian = tested on: OVCAR-4 ovarian
# OVCAR-5 ovarian = tested on: OVCAR-5 ovarian
# OVCAR-8 ovarian = tested on: OVCAR-8 ovarian
# PC-3 prostate = tested on: PC-3 prostate
# RPMI-8226 leukemia = tested on: RPMI-8226 leukemia
# RXF 393 renal = tested on: RXF 393 renal
# SF-268 CNS = tested on: SF-268 CNS
# SF-295 CNS = tested on: SF-295 CNS
# SF-539 CNS = tested on: SF-539 CNS
# SK-MEL-28 melanoma = tested on: SK-MEL-28 melanoma
# SK-MEL-5 melanoma = tested on: SK-MEL-5 melanoma
# SK-OV-3 ovarian = tested on: SK-OV-3 ovarian
# SN12C renal = tested on: SN12C renal
# SNB-19 CNS = tested on: SNB-19 CNS
# SNB-75 CNS = tested on: SNB-75 CNS
# SR leukemia = tested on: SR leukemia
# SW-620 colon = tested on: SW-620 colon
# T-47D breast = tested on: T-47D breast
# TK-10 renal = tested on: TK-10 renal
# U251 CNS = tested on: U251 CNS
# UACC-257 melanoma = tested on: UACC-257 melanoma
# UACC-62 melanoma = tested on: UACC-62 melanoma
# UO-31 renal = tested on: UO-31 renal
# COLO 205 colon = tested on: COLO 205 colon
# SK-MEL-2 melanoma = tested on: SK-MEL-2 melanoma
smiles,measurement,setting,value
CC(N)(Cc1c[nH]c2cccc(F)c12)C(=O)O (stereo not given),GI50,786-0 renal,> 1000 µM
same,TGI,786-0 renal,> 1000 µM
same,GI50,A498 renal,> 1000 µM
same,TGI,A498 renal,> 1000 µM
same,GI50,A549 NSCLC,> 1000 µM
same,TGI,A549 NSCLC,> 1000 µM
same,GI50,ACHN renal,> 1000 µM
same,TGI,ACHN renal,> 1000 µM
same,GI50,CAKI-1 renal,> 1000 µM
same,TGI,CAKI-1 renal,> 1000 µM
same,GI50,CCRF-CEM leukemia,> 1000 µM
same,TGI,CCRF-CEM leukemia,> 1000 µM
same,GI50,DU-145 prostate,> 1000 µM
same,TGI,DU-145 prostate,> 1000 µM
same,GI50,EKVX NSCLC,> 1000 µM
same,TGI,EKVX NSCLC,> 1000 µM
same,GI50,HCC-2998 colon,> 1000 µM
same,TGI,HCC-2998 colon,> 1000 µM
same,GI50,HCT-116 colon,> 1000 µM
same,TGI,HCT-116 colon,> 1000 µM
same,GI50,HCT-15 colon,> 1000 µM
same,TGI,HCT-15 colon,> 1000 µM
same,GI50,HL-60(TB) leukemia,> 1000 µM
same,TGI,HL-60(TB) leukemia,> 1000 µM
same,GI50,HOP-62 NSCLC,645 µM
same,TGI,HOP-62 NSCLC,> 1000 µM
same,TGI,HOP-92 NSCLC,> 1000 µM
same,GI50,HS 578T breast,786 µM
same,TGI,HS 578T breast,> 1000 µM
same,GI50,HT29 colon,> 1000 µM
same,TGI,HT29 colon,> 1000 µM
same,GI50,IGROV1 ovarian,364 µM
same,TGI,IGROV1 ovarian,> 1000 µM
same,GI50,K-562 leukemia,> 1000 µM
same,TGI,K-562 leukemia,> 1000 µM
same,GI50,KM12 colon,> 1000 µM
same,TGI,KM12 colon,> 1000 µM
same,GI50,LOX IMVI melanoma,> 1000 µM
same,TGI,LOX IMVI melanoma,> 1000 µM
same,GI50,M14 melanoma,> 1000 µM
same,TGI,M14 melanoma,> 1000 µM
same,GI50,MALME-3M melanoma,> 1000 µM
same,TGI,MALME-3M melanoma,> 1000 µM
same,GI50,MCF7 breast,> 1000 µM
same,TGI,MCF7 breast,> 1000 µM
same,GI50,MDA-MB-231 breast,> 1000 µM
same,TGI,MDA-MB-231 breast,> 1000 µM
same,GI50,MDA-MB-435,> 1000 µM
same,TGI,MDA-MB-435,> 1000 µM
same,GI50,MOLT-4 leukemia,> 1000 µM
same,TGI,MOLT-4 leukemia,> 1000 µM
same,GI50,NCI-H23 lung,> 1000 µM
same,TGI,NCI-H23 lung,> 1000 µM
same,GI50,NCI-H460 lung,> 1000 µM
same,TGI,NCI-H460 lung,> 1000 µM
same,GI50,NCI-H522 lung,> 1000 µM
same,TGI,NCI-H522 lung,> 1000 µM
same,GI50,NCI/ADR-RES ovarian,> 1000 µM
same,TGI,NCI/ADR-RES ovarian,> 1000 µM
same,GI50,OVCAR-3 ovarian,> 1000 µM
same,TGI,OVCAR-3 ovarian,> 1000 µM
same,GI50,OVCAR-4 ovarian,> 1000 µM
same,TGI,OVCAR-4 ovarian,> 1000 µM
same,GI50,OVCAR-5 ovarian,> 1000 µM
same,TGI,OVCAR-5 ovarian,> 1000 µM
same,GI50,OVCAR-8 ovarian,> 1000 µM
same,TGI,OVCAR-8 ovarian,> 1000 µM
same,GI50,PC-3 prostate,> 1000 µM
same,TGI,PC-3 prostate,> 1000 µM
same,GI50,RPMI-8226 leukemia,> 1000 µM
same,TGI,RPMI-8226 leukemia,> 1000 µM
same,GI50,RXF 393 renal,> 1000 µM
same,TGI,RXF 393 renal,> 1000 µM
same,GI50,SF-268 CNS,> 1000 µM
same,TGI,SF-268 CNS,> 1000 µM
same,GI50,SF-295 CNS,> 1000 µM
same,TGI,SF-295 CNS,> 1000 µM
same,GI50,SF-539 CNS,> 1000 µM
same,TGI,SF-539 CNS,> 1000 µM
same,GI50,SK-MEL-28 melanoma,> 1000 µM
same,TGI,SK-MEL-28 melanoma,> 1000 µM
same,GI50,SK-MEL-5 melanoma,> 1000 µM
same,TGI,SK-MEL-5 melanoma,> 1000 µM
same,GI50,SK-OV-3 ovarian,992 µM
same,TGI,SK-OV-3 ovarian,> 1000 µM
same,GI50,SN12C renal,> 1000 µM
same,TGI,SN12C renal,> 1000 µM
same,GI50,SNB-19 CNS,> 1000 µM
same,TGI,SNB-19 CNS,> 1000 µM
same,GI50,SNB-75 CNS,405 µM
same,TGI,SNB-75 CNS,> 1000 µM
same,GI50,SR leukemia,> 1000 µM
same,TGI,SR leukemia,> 1000 µM
same,GI50,SW-620 colon,> 1000 µM
same,TGI,SW-620 colon,> 1000 µM
same,GI50,T-47D breast,978 µM
same,TGI,T-47D breast,> 1000 µM
same,GI50,TK-10 renal,> 1000 µM
same,TGI,TK-10 renal,> 1000 µM
same,GI50,U251 CNS,> 1000 µM
same,TGI,U251 CNS,> 1000 µM
same,GI50,UACC-257 melanoma,> 1000 µM
same,TGI,UACC-257 melanoma,> 1000 µM
same,GI50,UACC-62 melanoma,> 1000 µM
same,TGI,UACC-62 melanoma,> 1000 µM
same,GI50,UO-31 renal,138 µM
same,TGI,UO-31 renal,> 1000 µM
CNC(=O)c1c(NC(=O)c2ccc(C(C)(C)C)cc2)sc2c(CN(C)C)c(O)ccc12,GI50,786-0 renal,1.74 µM
same,TGI,786-0 renal,3.3 µM
same,GI50,CAKI-1 renal,1.68 µM
same,TGI,CAKI-1 renal,3.25 µM
same,GI50,CCRF-CEM leukemia,1.2 µM
same,TGI,CCRF-CEM leukemia,4.68 µM
same,GI50,COLO 205 colon,2.1 µM
same,TGI,COLO 205 colon,4.3 µM
same,GI50,HCC-2998 colon,1.34 µM
same,TGI,HCC-2998 colon,2.94 µM
same,GI50,HCT-116 colon,0.936 µM
same,TGI,HCT-116 colon,2.43 µM
same,GI50,HCT-15 colon,0.459 µM
same,TGI,HCT-15 colon,1.82 µM
same,GI50,HL-60(TB) leukemia,1.26 µM
same,TGI,HL-60(TB) leukemia,3.18 µM
same,GI50,HOP-92 NSCLC,1.2 µM
same,TGI,HOP-92 NSCLC,2.74 µM
same,GI50,HS 578T breast,2.02 µM
same,TGI,HS 578T breast,4.56 µM
same,GI50,K-562 leukemia,0.317 µM
same,TGI,K-562 leukemia,1.32 µM
same,GI50,KM12 colon,1.78 µM
same,TGI,KM12 colon,3.2 µM
same,GI50,LOX IMVI melanoma,1.13 µM
same,TGI,LOX IMVI melanoma,2.38 µM
same,GI50,M14 melanoma,1.74 µM
same,TGI,M14 melanoma,3.54 µM
same,GI50,MALME-3M melanoma,1.73 µM
same,TGI,MALME-3M melanoma,3.51 µM
same,GI50,MCF7 breast,1.41 µM
same,TGI,MCF7 breast,2.95 µM
same,GI50,MDA-MB-231 breast,1.81 µM
same,TGI,MDA-MB-231 breast,3.67 µM
same,GI50,MDA-MB-435,1.8 µM
same,TGI,MDA-MB-435,3.34 µM
same,GI50,MOLT-4 leukemia,1.28 µM
same,TGI,MOLT-4 leukemia,3.73 µM
same,GI50,NCI-H460 lung,1.14 µM
same,TGI,NCI-H460 lung,2.53 µM
same,GI50,OVCAR-5 ovarian,1.85 µM
same,TGI,OVCAR-5 ovarian,3.68 µM
same,GI50,RXF 393 renal,1.67 µM
same,TGI,RXF 393 renal,3.33 µM
same,GI50,SF-268 CNS,1.77 µM
same,TGI,SF-268 CNS,3.46 µM
same,GI50,SF-295 CNS,1.86 µM
same,TGI,SF-295 CNS,3.56 µM
same,GI50,SF-539 CNS,1.66 µM
same,TGI,SF-539 CNS,3.13 µM
same,GI50,SK-MEL-2 melanoma,2.1 µM
same,TGI,SK-MEL-2 melanoma,4.28 µM
same,GI50,SK-MEL-28 melanoma,1.73 µM
same,TGI,SK-MEL-28 melanoma,3.19 µM
same,GI50,SK-MEL-5 melanoma,1.81 µM
same,TGI,SK-MEL-5 melanoma,3.25 µM
same,GI50,SR leukemia,0.99 µM
same,TGI,SR leukemia,3.5 µM
same,GI50,SW-620 colon,1.74 µM
same,TGI,SW-620 colon,3.38 µM
same,GI50,TK-10 renal,1.94 µM
same,TGI,TK-10 renal,3.94 µM
same,GI50,UACC-257 melanoma,1.95 µM
same,TGI,UACC-257 melanoma,4.09 µM
same,GI50,UACC-62 melanoma,1.76 µM
same,TGI,UACC-62 melanoma,3.24 µM
same,GI50,UO-31 renal,1.49 µM
same,TGI,UO-31 renal,2.89 µM
